Experiment in all cases: TG Activity Assays
Test [1] deals with T1, Protein-glutamine gamma-glutamyltransferase 2 (Homo sapiens, UniProt P21980).
T1 sequence (P21980 whole entry): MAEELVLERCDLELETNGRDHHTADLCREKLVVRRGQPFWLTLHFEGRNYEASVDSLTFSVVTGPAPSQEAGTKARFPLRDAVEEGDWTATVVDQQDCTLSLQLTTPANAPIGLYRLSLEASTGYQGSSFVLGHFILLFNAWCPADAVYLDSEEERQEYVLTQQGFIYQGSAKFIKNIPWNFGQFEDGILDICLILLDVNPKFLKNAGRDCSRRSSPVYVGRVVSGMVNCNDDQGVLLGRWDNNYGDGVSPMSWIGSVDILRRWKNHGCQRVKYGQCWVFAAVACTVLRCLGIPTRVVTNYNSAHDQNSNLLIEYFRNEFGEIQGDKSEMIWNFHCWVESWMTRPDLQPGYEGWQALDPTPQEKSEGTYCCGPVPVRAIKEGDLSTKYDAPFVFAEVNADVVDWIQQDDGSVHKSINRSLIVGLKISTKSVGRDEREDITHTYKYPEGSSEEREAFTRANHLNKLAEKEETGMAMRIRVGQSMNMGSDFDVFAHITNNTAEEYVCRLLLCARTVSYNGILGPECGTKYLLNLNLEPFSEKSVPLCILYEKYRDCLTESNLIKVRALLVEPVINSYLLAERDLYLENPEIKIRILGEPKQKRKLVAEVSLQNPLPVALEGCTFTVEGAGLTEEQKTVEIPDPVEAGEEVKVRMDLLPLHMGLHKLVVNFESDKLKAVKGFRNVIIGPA
As to the method:
(§1) The incorporated biotinylated peptides were measured using horseradish peroxidase-conjugated streptavidin and then measured using o-phenylenediamine dihydrochloride substrates. The absorbance was measured at 490 nm using a microplat

For test [2], the target named is T2, Protein-glutamine gamma-glutamyltransferase K (Homo sapiens, UniProt P22735).
T2 sequence (P22735 whole entry): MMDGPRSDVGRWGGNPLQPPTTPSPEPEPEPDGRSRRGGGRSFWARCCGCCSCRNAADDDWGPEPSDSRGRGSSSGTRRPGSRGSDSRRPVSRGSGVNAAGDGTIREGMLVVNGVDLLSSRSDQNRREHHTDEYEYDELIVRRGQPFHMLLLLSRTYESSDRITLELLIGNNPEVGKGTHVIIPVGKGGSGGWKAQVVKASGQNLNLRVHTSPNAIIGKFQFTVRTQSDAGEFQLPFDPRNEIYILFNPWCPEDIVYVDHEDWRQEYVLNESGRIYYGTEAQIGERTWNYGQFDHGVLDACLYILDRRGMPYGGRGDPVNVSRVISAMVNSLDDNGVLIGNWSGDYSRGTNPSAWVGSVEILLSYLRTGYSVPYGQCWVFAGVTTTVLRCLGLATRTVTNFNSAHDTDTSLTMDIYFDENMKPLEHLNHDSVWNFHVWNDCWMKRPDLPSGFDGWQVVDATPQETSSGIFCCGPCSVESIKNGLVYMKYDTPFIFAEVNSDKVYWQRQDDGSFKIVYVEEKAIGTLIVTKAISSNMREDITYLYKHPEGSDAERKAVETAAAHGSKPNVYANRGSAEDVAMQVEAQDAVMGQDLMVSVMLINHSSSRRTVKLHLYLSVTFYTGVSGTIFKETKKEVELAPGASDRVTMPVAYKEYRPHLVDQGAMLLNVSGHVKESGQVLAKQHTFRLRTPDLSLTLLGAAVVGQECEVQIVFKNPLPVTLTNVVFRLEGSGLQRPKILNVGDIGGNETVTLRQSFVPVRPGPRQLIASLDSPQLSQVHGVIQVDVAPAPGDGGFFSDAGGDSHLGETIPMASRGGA
As to the method: as §1

Test [3] addresses T3, Protein-glutamine gamma-glutamyltransferase E (Homo sapiens, UniProt Q08188).
T3 sequence (Q08188 whole entry): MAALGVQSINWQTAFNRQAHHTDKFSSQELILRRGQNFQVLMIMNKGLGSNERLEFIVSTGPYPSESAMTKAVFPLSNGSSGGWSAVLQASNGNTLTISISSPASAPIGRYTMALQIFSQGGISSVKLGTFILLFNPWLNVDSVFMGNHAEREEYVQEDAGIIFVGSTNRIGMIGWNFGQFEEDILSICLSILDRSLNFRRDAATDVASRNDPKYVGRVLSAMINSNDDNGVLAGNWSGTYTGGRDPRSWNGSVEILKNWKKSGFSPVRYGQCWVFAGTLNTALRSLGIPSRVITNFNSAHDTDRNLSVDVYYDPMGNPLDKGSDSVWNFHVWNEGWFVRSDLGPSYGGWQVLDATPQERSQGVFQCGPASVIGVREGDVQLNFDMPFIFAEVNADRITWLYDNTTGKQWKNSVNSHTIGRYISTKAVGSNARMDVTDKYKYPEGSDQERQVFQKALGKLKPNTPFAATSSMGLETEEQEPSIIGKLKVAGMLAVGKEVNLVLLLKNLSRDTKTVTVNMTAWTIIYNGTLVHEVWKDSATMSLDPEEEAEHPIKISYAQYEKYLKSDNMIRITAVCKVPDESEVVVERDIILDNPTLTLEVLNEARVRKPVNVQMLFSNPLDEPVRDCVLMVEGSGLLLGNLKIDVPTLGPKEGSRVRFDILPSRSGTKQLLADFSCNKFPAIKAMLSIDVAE
The method, then: as §1

SMILES strings stand for the structures.

Take `O=C(CBr)NCC(=O)N1CCN(C(=O)OCC23CC4CC(CC(C4)C2)C3)CC1` [1-Adamantylmethyl 4-[2-[(2-bromoacetyl)amino]acetyl]piperazine-1-carboxylate (6f)]: half-maximal inhibition in test [1] (IC50) required 0.00629 µM.

For the compound `C=CC(=O)NCC(=O)N1CCN(C(=O)OCCC23CC4CC(CC(C4)C2)C3)CC1` [2-(1-Adamantyl)ethyl 4-[2-(prop-2-enoylamino)acetyl]piperazine-1-carboxylate (3g)], the half-maximal inhibitory concentration (IC50) in test [2] was over 100 µM; in test [3], over 100 µM; in test [1] it was 0.9 µM.

As to `O=C(CBr)NCC(=O)N1CCN(C(=O)OCCC23CC4CC(CC(C4)C2)C3)CC1` [2-(1-Adamantyl)ethyl 4-[2-[(2-bromoacetyl)amino]acetyl]piperazine-1-carboxylate (6g)], the IC50 came out at 3 µM in test [2] and 50 µM in test [3].

On to `C=CC(=O)NCC(=O)N1CCN(C(=O)OCc2ccc3ccccc3c2)CC1` [2-Naphthylmethyl 4-[2-(prop-2-enoylamino)acetyl]piperazine-1-carboxylate (3c)], for which the IC50 in test [2] was over 100 µM; in test [3] it was over 100 µM; in test [1], 0.44 µM.

Consider `O=C(CBr)NCC(=O)N1CCN(C(=O)OCc2ccc3ccccc3c2)CC1` [2-Naphthylmethyl 4-[2-[(2-bromoacetyl)amino]acetyl]piperazine-1-carboxylate (6c)], for which the IC50 in test [1] was determined as 0.029 µM.

Compound `C=CC(=O)NCC(=O)N1CCN(C(=O)OCc2ccc(C(=O)OC)cc2)CC1` [(4-Methoxycarbonylphenyl)methyl 4-[2-(prop-2-enoylamino)acetyl]piperazine-1-carboxylate (3b)] registered a concentration for half-maximal inhibition (IC50) in test [1] of 6.3 µM. Compared with the last compound, the IC50 is about 220-fold higher.

On to `COC(=O)c1ccc(COC(=O)N2CCN(C(=O)CNC(=O)CBr)CC2)cc1` [(4-Methoxycarbonylphenyl)methyl 4-[2-[(2-bromoacetyl)amino]acetyl]piperazine-1-carboxylate (6b)], for which, in test [1], the IC50 was 0.0021 µM.

As to `COC(=O)c1ccc2cc(COC(=O)N3CCN(C(=O)CNC(=O)CBr)CC3)ccc2c1` [(6-Methoxycarbonyl-2-naphthyl)methyl 4-[2-[(2-bromoacetyl)amino]acetyl]piperazine-1-carboxylate (6d)], the IC50 came out at 5 µM in test [2], 65 µM in test [3] and 0.015 µM in test [1].

Consider `COC(=O)c1ccc2cc(COC(=O)N3CCN(C(=O)CNC(=O)CCl)CC3)ccc2c1` [(6-Methoxycarbonyl-2-naphthyl)methyl 4-[2-[(2-chloroacetyl)amino]acetyl]piperazine-1-carboxylate (6n)], for which the 50% inhibitory concentration (IC50) in test [1] turned out to be 0.00665 µM. In other words, the single-digit nanomolar range.

In test [1], `C=CC(=O)NCC(=O)N1CCN(C(=O)OCc2ccccc2)CC1` [Benzyl 4-[2-(prop-2-enoylamino)acetyl]piperazine-1-carboxylate (3a)] came in with an IC50 of 5.92 µM.

As for `C=CS(=O)(=O)NCC(=O)N1CCN(C(=O)OCc2ccccc2)CC1` [Benzyl 4-[2-(vinylsulfonylamino)acetyl]piperazine-1-carboxylate (2a)], in test [1], the IC50 was found to be 1.73 µM.

As to `Cc1c(C)[n+](C)c(SCC(=O)NCC(=O)N2CCN(C(=O)OCc3ccccc3)CC2)n1C` [Benzyl 4-[2-[[2-(1,3,4,5-tetramethylimidazol-1-ium-2-yl)sulfanylacetyl]amino]-acetyl]-piperazine-1-carboxylate bromide (1s)], half-maximal inhibition in test [1] (IC50) required 100 µM.

Consider `C[S+](C)CC(=O)NCC(=O)N1CCN(C(=O)OCc2ccc3ccccc3c2)CC1` [Dimethyl-[2-[[2-[4-(2-naphthylmethoxycarbonyl)piperazin-1-yl]-2-oxo-ethyl]amino]-2-oxo-ethyl]sulfonium bromide (1c)], for which the results for the half-inhibitory concentration (IC50) in test [2], in test [3] and in test [1] were over 100 µM, over 100 µM and 1.07 µM, respectively.

As for `O=C(CBr)NCC(=O)N1CCN(C(=O)C23CC4CC(CC(C4)C2)C3)CC1` [N-[2-[4-(adamantane-1-carbonyl)piperazin-1-yl]-2-oxo-ethyl]-2-bromo-acetamide (6e)], the values for the IC50 in test [2], in test [3] and in test [1] were 1 µM, 70 µM and 0.0039 µM, respectively.

In turn, `O=C(CCl)NCC(=O)N1CCN(C(=O)C23CC4CC(CC(C4)C2)C3)CC1` [N-[2-[4-(adamantane-1-carbonyl)piperazin-1-yl]-2-oxo-ethyl]-2-chloro-acetamide (6o)] came in with a half-inhibitory concentration (IC50) in test [1] of 0.00875 µM.

For `C=CS(=O)(=O)NCC(=O)N1CCN(C(=O)C23CC4CC(CC(C4)C2)C3)CC1` [N-[2-[4-(adamantane-1-carbonyl)piperazin-1-yl]-2-oxo-ethyl]ethenesulfonamide (2e)], the IC50 in test [1] is 0.875 µM. This IC50 is about 100-fold higher than that of the compound before.

Consider `C=CC(=O)NCC(=O)N1CCN(S(=O)(=O)c2cccc3c(N(C)C)cccc23)CC1` [N-[2-[4-[[5-(dimethylamino)-1-naphthyl]sulfonyl]piperazin-1-yl]-2-oxo-ethyl]prop-2-enamide (3h)], for which the IC50 in test [2] turned out to be 25 µM; in test [3] it was 20 µM.

As for `C[S+](C)CC(=O)NCC(=O)N1CCN(C(=O)OCc2ccccc2)CC1` [[2-[[2-(4-Benzyloxycarbonylpiperazin-1-yl)-2-oxo-ethyl]amino]-2-oxo-ethyl]-dimethylsulfonium bromide (1a)], the IC50 in test [2] is over 100 µM; in test [3], over 100 µM; in test [1], 1.4 µM.

For the compound `C[S+](C)CC(=O)NCC(=O)N1CCN(C(=O)OC(C)(C)C)CC1` [[2-[[2-(4-tert-Butoxycarbonylpiperazin-1-yl)-2-oxo-ethyl]amino]-2-oxo-ethyl]-dimethylsulfonium bromide (1m)], the values for the IC50 in test [2], in test [3] and in test [1] were over 100 µM, over 100 µM and 0.273 µM, respectively.

Regarding `C[S+](C)CC(=O)NCC(=O)N1CCN(C(=O)OCCC23CC4CC(CC(C4)C2)C3)CC1` [[2-[[2-[4-[2-(1-Adamantyl)ethoxycarbonyl]piperazin-1-yl]-2-oxo-ethyl]amino]-2-oxo-ethyl]-dimethyl-sulfonium bromide (1g)], in test [1], the midpoint of inhibition, the IC50, lay at 3.15 µM.

On to `COC(=O)c1ccc(COC(=O)N2CCN(C(=O)CNC(=O)C[S+](C)C)CC2)cc1` [[2-[[2-[4-[(4-Methoxycarbonylphenyl)methoxycarbonyl]piperazin-1-yl]-2-oxo-ethyl]-amino]-2-oxo-ethyl]-dimethyl-sulfonium bromide (1b)], for which the results for the IC50 in test [2], in test [3] and in test [1] were over 100 µM, over 100 µM and 3.3 µM, respectively.

What is called IC50 is the concentration that gives 50% inhibition. Read a high IC50 as a need for much substance.

Values taken from BindingDB's records for doi:10.1016/j.chembiol.2015.08.013 (Aston University, 2015).
